Assay [1] relates to Acinetobacter baumannii CH40. Briefly: microbe, parasite or virus in culture.
For assay [2], the system named is Acinetobacter baumannii CH52. Briefly: microbe, parasite or virus in culture.
For assay [3], the system named is Acinetobacter guillouiae CH42. The assay can be described thus: microbe, parasite or virus in culture.
For assay [4], the system named is Acinetobacter baumannii CH45. Briefly: microbe, parasite or virus in culture.
Assay [5] has as its system Multi-drug resistant A. baumannii CH-46. The assay can be described thus: microbe, parasite or virus in culture. The conditions noted are these: Acinetobacter baumannii.
Assay [6] has as its system Acinetobacter baumannii CH53. Briefly: microbe, parasite or virus in culture.
The subject of assay [7] is Acinetobacter baumannii CH48. The assay can be described thus: microbe, parasite or virus in culture.
Assay [8] relates to Acinetobacter ursingii CH41. Briefly: microbe, parasite or virus in culture.
The subject of assay [9] is Acinetobacter septicus CH44. The assay can be described thus: microbe, parasite or virus in culture.
Assay [10] relates to Acinetobacter baumannii CH38. The assay can be described thus: microbe, parasite or virus in culture.
The subject of assay [11] is Acinetobacter baumannii CH55. The assay can be described thus: microbe, parasite or virus in culture.
In assay [12] the test system is Acinetobacter modestus CH43. The assay can be described thus: microbe, parasite or virus in culture.
The subject of assay [13] is Acinetobacter baumannii CH49. The assay can be described thus: microbe, parasite or virus in culture.
Assay [14] concerns Acinetobacter baumannii CH39. Briefly: microbe, parasite or virus in culture.
For assay [15], the system named is Acinetobacter baumannii CH54. The assay can be described thus: microbe, parasite or virus in culture.
For assay [16], the system named is Acinetobacter baumannii CH50. The assay can be described thus: microbe, parasite or virus in culture.
Assay [17] has as its system Acinetobacter baumannii CH51. The assay can be described thus: microbe, parasite or virus in culture.
Assay [18] has as its system Acinetobacter baumannii CH36. The assay can be described thus: microbe, parasite or virus in culture.
Assay [19] relates to Acinetobacter baumannii CH47. The assay can be described thus: microbe, parasite or virus in culture.
Assay [20] has as its system Acinetobacter calcoaceticus CH37. Briefly: microbe, parasite or virus in culture.
Assay [21] concerns Acinetobacter ursingii CH41. As to conditions: CH41, A. ursingii, drug resistance N.
The subject of assay [22] is Acinetobacter baumannii CH47.
The subject of assay [23] is Acinetobacter guillouiae CH42.
Assay [24] deals with Acinetobacter baumannii CH36.
Assay [25] relates to Acinetobacter baumannii CH55.
For assay [26], the system named is Acinetobacter baumannii CH54.
Assay [27] relates to Acinetobacter baumannii CH40.
The subject of assay [28] is Acinetobacter calcoaceticus CH37.
Assay [29] deals with Acinetobacter baumannii CH51.
For assay [30], the system named is Acinetobacter baumannii CH52.
Assay [31] deals with Multi-drug resistant A. baumannii CH-46. As to conditions: Multi-drug resistant A. baumannii CH-46 (CH46 in Table S1, drug resistance Y); broth microplate dilution.
Assay [32] concerns Acinetobacter baumannii CH49.
Assay [33] concerns Acinetobacter septicus CH44. As to conditions: CH44, A. septicus, drug resistance N.
Assay [34] deals with Acinetobacter baumannii CH48.
In assay [35] the test system is Acinetobacter baumannii CH38.
For assay [36], the system named is Acinetobacter baumannii CH39.
Assay [37] has as its system Acinetobacter modestus CH43.
Assay [38] relates to Acinetobacter baumannii CH53.
For assay [39], the system named is Acinetobacter baumannii CH45.
Assay [40] has as its system Acinetobacter baumannii CH50.
The next assay concerns S. aureus (ATCC 29213). It counts as cell-based, Staphylococcus aureus. The conditions noted are these: overnight 37°C.
For the next assay, the system named is MDR S. aureus (CH-11). It counts as cell-based, Staphylococcus aureus.
Assay [41] deals with S. aureus ATCC 29213 (SA) biofilm. Briefly: Anti-biofilm activity, pre-formed biofilm. The class given is cell-based, Staphylococcus aureus. The conditions noted are these: only at the highest concentration 100 μg/mL, 4 h, PrestoBlue.
The test system of the next assay is S. aureus ATCC 29213. Briefly: Inhibition of bacterial adhesion, pre-coated polystyrene plates. As to conditions: wells pre-treated at 10 μg/mL, washed; bacteria incubated 1 to 24 h at 37°C, PrestoBlue. The class given is cell-based, Staphylococcus aureus.

≈ marks a conversion by molar mass, not a printed value. Where two headings read alike, the source gives them in different places. Positions of bridges follow the written chain, without caps; N, C: chain ends. Non-standard residues stand in square brackets, D forms with d. Residues, ends and D or L forms follow the SMILES beside them. *: point of attachment. X1 = CC[C@H](C)CCCCC(=O)*; Dab = NCC[C@H](N)C(=O)O

As for `C[C@@H](O)[C@H]1C(=O)N2C(C(=O)O)=C(SCCN=CN)C[C@H]12` [Imipenem], the MIC in [1] was determined as 31.2 µg/mL (≈ 104 µM); in assay [2], 31.2 µg/mL (≈ 104 µM); in [3] it was 7.81 µg/mL (≈ 26.1 µM); in [4], 125 µg/mL (≈ 418 µM); in assay [5] it was 250 µg/mL (≈ 835 µM); in assay [6], 31.2 µg/mL (≈ 104 µM). In addition, the MIC came to 7.81 µg/mL (≈ 26.1 µM) in assay [7]; 1 µg/mL (≈ 3.34 µM) in assay [8]; 1.46 µg/mL (≈ 4.88 µM) in assay [9]; 125 µg/mL (≈ 418 µM) in [10]; 46.9 µg/mL (≈ 157 µM) in assay [11]; 0.5 µg/mL (≈ 1.67 µM) in [12]. Moreover, the MIC in [13] worked out at 62.5 µg/mL (≈ 209 µM); in assay [14], 15.6 µg/mL (≈ 52.2 µM); in assay [15], 7.81 µg/mL (≈ 26.1 µM); in assay [16], 62.5 µg/mL (≈ 209 µM); in assay [17], 31.2 µg/mL (≈ 104 µM); in assay [18], 250 µg/mL (≈ 835 µM). Also, the MIC in assay [19] is 3.91 µg/mL (≈ 13.1 µM); in assay [20], 0.5 µg/mL (≈ 1.67 µM).

As for `CC[C@H](C)CCCCC(=O)N[C@@H](CCN)C(=O)N[C@H](C(=O)N[C@@H](CCN)C(=O)N[C@H]1CCNC(=O)[C@H]([C@@H](C)O)NC(=O)[C@H](CCN)NC(=O)[C@H](CCN)NC(=O)[C@H](CC(C)C)NC(=O)[C@@H](CC(C)C)NC(=O)[C@H](CCN)NC1=O)[C@@H](C)O` [Colistin] (X1-[Dab]T[Dab][Dab][Dab][dL]L[Dab][Dab]T; lactam 4-C (inferred); N-terminus assumed), the MIC in assay [21] is listed as 1.95 µg/mL (≈ 1.67 µM); in assay [22], 3.91 µg/mL (≈ 3.34 µM); in [23] it was 3.91 µg/mL (≈ 3.34 µM); in assay [24] it was 3.91 µg/mL (≈ 3.34 µM); in [25], 7.81 µg/mL (≈ 6.68 µM); in assay [26], 5.86 µg/mL (≈ 5.01 µM). Moreover, the MIC in assay [27] was 5.86 µg/mL (≈ 5.01 µM); in assay [28] it was 3.91 µg/mL (≈ 3.34 µM); in assay [29] it was 3.91 µg/mL (≈ 3.34 µM); in assay [30], 3.91 µg/mL (≈ 3.34 µM); in assay [31] it was 3.91 µg/mL (≈ 3.34 µM); in assay [32], 3.91 µg/mL (≈ 3.34 µM). The MIC in assay [33] was determined as 1.95 µg/mL (≈ 1.67 µM); in assay [34], 3.91 µg/mL (≈ 3.34 µM); in [35], 3.91 µg/mL (≈ 3.34 µM); in assay [36], 3.91 µg/mL (≈ 3.34 µM); in assay [37], 7.81 µg/mL (≈ 6.68 µM); in [38] it was 3.91 µg/mL (≈ 3.34 µM). The MIC in assay [39] is recorded as 3.91 µg/mL (≈ 3.34 µM); in [40] it was 5.86 µg/mL (≈ 5.01 µM).

On to `COc1cccc(OC)c1C(=O)N[C@@H]1C(=O)N2[C@@H]1SC(C)(C)[C@@H]2C(=O)O` [Methicillin], for which the “Frequency of Resistance to antibiotics” value with S. aureus (ATCC 29213) (2X MIC in Mueller-Hinton agar, resistant colonies / CFU of inoculum) is on record as < 3.72 × 10^–10; in the assay on S. aureus (ATCC 29213) (3X MIC in Mueller-Hinton agar), < 3.72 × 10^–10; in the assay with S. aureus (ATCC 29213) (4X MIC in Mueller-Hinton agar), < 3.72 × 10^–10; with S. aureus (ATCC 29213) (5X MIC in Mueller-Hinton agar), < 3.72 × 10^–10; with S. aureus (ATCC 29213) (10X MIC in Mueller-Hinton agar), < 3.72 × 10^–10; in the assay with MDR S. aureus (CH-11), “resistant”.

In the case of `CN[C@H](CC(C)C)C(=O)N[C@H]1C(=O)N[C@@H](CC(N)=O)C(=O)N[C@H]2C(=O)N[C@H]3C(=O)N[C@H](C(=O)N[C@H](C(=O)O)c4cc(O)cc(O)c4-c4cc3ccc4O)[C@H](O)c3ccc(c(Cl)c3)Oc3cc2cc(c3O[C@@H]2O[C@H](CO)[C@@H](O)[C@H](O)[C@H]2O[C@H]2C[C@](C)(N)[C@H](O)[C@H](C)O2)Oc2ccc(cc2Cl)[C@H]1O` [vancomycin], in [41], the “Effect on viability of pre-formed biofilm” value is listed as “partially effective”.

B1: platelet factor 4: control cationic peptide (protein, UniProt P02776 32-101, looked up)
Platelet factor 4: EAEEDGDLQCLCVKTTSQVRPRHITSLEVIKAGPHCPTAQLIATLKNGRKICLDLQAPLYKKIIKKLLES
In the case of B1, the “Inhibition of cell adhesion / biofilm formation on pre-treated polystyrene wells” value with S. aureus ATCC 29213 is listed as “no effect on biofilm formation”.

The values above are taken from PMC7721686, “Isolation, Characterization and Structure Elucidation of a Novel Lantibiotic From Paenibacillus sp” (Frontiers in Microbiology, 2020).
